The source of these data is the supplement of paper PMC10307832.

Common to all, as to assay: relative viability (nuclei count vs DMSO), 5 days (fraction); higher = more cells survive
Compound in test [1]: CC1=CC(=NN1)NC2=CC(=NC(=N2)/C=C/C3=CC=CC=C3)N4CCN(CC4)C + C[C@]1(O)C[C@@H](c2nc(-c3ccc4ccc(-c5ccccc5)nc4c3)c3c(N)nccn32)C1 [Linsitinib] (partner 1 µM)
The method in brief: (§1)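 Relative viability is defined as nuclei in treated wells over nuclei in vehicle wells. Duplicate plates were run and medians reported. Lung cancer cell lines in 1536-well plates were dosed by pin tool one day after seeding, with one drug or with a fixed anchor-drug dose plus five library-drug doses (not always all listed) in √10 steps, and nuclei were counted after 5 days.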

Compound in test [2]: CC1=CC(=NN1)NC2=CC(=NC(=N2)/C=C/C3=CC=CC=C3)N4CCN(CC4)C + COc1cccc2cc(-c3nc([C@H]4CC[C@H](C(=O)O)CC4)n4ncnc(N)c34)[nH]c12 [OSI-027] (partner 0.5 µM)
The method in brief:
as §1

Compound in the test “Bortezomib + Foretinib”: CC(C)C[C@H](NC(=O)[C@H](Cc1ccccc1)NC(=O)c1cnccn1)B(O)O [Bortezomib] + COc1cc2c(Oc3ccc(NC(=O)C4(C(=O)Nc5ccc(F)cc5)CC4)cc3F)ccnc2cc1OCCCN1CCOCC1 [Foretinib] (partner 0.25 µM)
The method in brief: as §1

For NCI-H2405, the relative viability in test [1] (first compound 0.08 µM) is 0.951; in test [1] (first compound 0.253 µM) it was 0.674; in test [1] (first compound 0.8 µM), 1.06; in test [1] (first compound 2.53 µM) it was 0.499; in test [1] (first compound 8 µM) it was 0.164; in test [2] (first compound 0.08 µM) it was 0.619. For the same cell line, the relative viability in test [2] (first compound 0.253 µM) came to 0.571; in test [2] (first compound 0.8 µM) it was 0.651; in test [2] (first compound 2.53 µM), 0.373; in test [2] (first compound 8 µM), 0.209; with Bortezomib + Foretinib (first compound 0.0002 µM) it was 1.02; in the test with Bortezomib + Foretinib (first compound 0.000632 µM) it was 1.05. Moreover, the relative viability with Bortezomib + Foretinib (first compound 0.002 µM) was 0.86; with Bortezomib + Foretinib (first compound 0.006325 µM), 0.271; with Bortezomib + Foretinib (first compound 0.02 µM), 0.188.
On to NCI-H3122, for which the relative viability amounted to 1.01 in test [1] (first compound 0.08 µM); 0.944 in test [1] (first compound 0.253 µM); 0.999 in test [1] (first compound 0.8 µM); 0.884 in test [1] (first compound 2.53 µM); 0.77 in test [1] (first compound 8 µM); 0.901 in test [2] (first compound 0.08 µM). Further, the relative viability stood at 0.763 in test [2] (first compound 0.253 µM); 0.975 in test [2] (first compound 0.8 µM); 0.675 in test [2] (first compound 2.53 µM); 0.186 in test [2] (first compound 8 µM); 0.889 with Bortezomib + Foretinib (first compound 0.0002 µM); 0.882 in the test with Bortezomib + Foretinib (first compound 0.000632 µM). Also, the relative viability in the test with Bortezomib + Foretinib (first compound 0.002 µM) was 0.994; with Bortezomib + Foretinib (first compound 0.006325 µM) it was 0.693; with Bortezomib + Foretinib (first compound 0.02 µM) it was 0.0999.
For PC-3 [JPC-3], the relative viability in test [1] (first compound 0.08 µM) amounted to 1.01; in test [1] (first compound 0.253 µM) it was 1.02; in test [1] (first compound 0.8 µM), 0.918; in test [1] (first compound 2.53 µM), 0.95; in test [1] (first compound 8 µM), 0.814; in test [2] (first compound 0.08 µM), 0.766. The relative viability in test [2] (first compound 0.253 µM) amounted to 0.683; in test [2] (first compound 0.8 µM), 0.83; in test [2] (first compound 2.53 µM), 0.67; in test [2] (first compound 8 µM), 0.59; with Bortezomib + Foretinib (first compound 0.0002 µM), 1.04; in the test with Bortezomib + Foretinib (first compound 0.000632 µM), 1.05. The relative viability in the test with Bortezomib + Foretinib (first compound 0.002 µM) turned out to be 0.346; with Bortezomib + Foretinib (first compound 0.006325 µM) it was 0.163; with Bortezomib + Foretinib (first compound 0.02 µM), 0.121.
PC-14: the relative viability in test [1] (first compound 0.08 µM) came to 0.906; in test [1] (first compound 0.253 µM) it was 1.01; in test [1] (first compound 0.8 µM), 0.892; in test [1] (first compound 2.53 µM), 0.77; in test [1] (first compound 8 µM), 0.107; in test [2] (first compound 0.08 µM), 0.856. Also, the relative viability in test [2] (first compound 0.253 µM) was determined as 0.825; in test [2] (first compound 0.8 µM), 0.802; in test [2] (first compound 2.53 µM) it was 0.0598; in test [2] (first compound 8 µM), 0.0365; with Bortezomib + Foretinib (first compound 0.0002 µM), 1.04; with Bortezomib + Foretinib (first compound 0.000632 µM) it was 1.03. For the same cell line, the relative viability in the test with Bortezomib + Foretinib (first compound 0.002 µM) came to 1.02; in the test with Bortezomib + Foretinib (first compound 0.006325 µM), 0.588; with Bortezomib + Foretinib (first compound 0.02 µM), 0.159.
For the cell line RERF-LC-KJ, the relative viability in test [1] (first compound 0.08 µM) worked out at 0.817; in test [1] (first compound 0.253 µM), 0.863; in test [1] (first compound 0.8 µM) it was 0.792; in test [1] (first compound 2.53 µM), 0.604; in test [1] (first compound 8 µM), 0.216; in test [2] (first compound 0.08 µM) it was 0.532. Also, the relative viability amounted to 0.656 in test [2] (first compound 0.253 µM); 0.53 in test [2] (first compound 0.8 µM); 0.238 in test [2] (first compound 2.53 µM); 0.179 in test [2] (first compound 8 µM); 0.944 in the test with Bortezomib + Foretinib (first compound 0.0002 µM); 0.886 with Bortezomib + Foretinib (first compound 0.000632 µM). For the same cell line, the relative viability was 0.929 with Bortezomib + Foretinib (first compound 0.002 µM), 0.761 with Bortezomib + Foretinib (first compound 0.006325 µM) and 0.221 in the test with Bortezomib + Foretinib (first compound 0.02 µM).
In the case of SK-LU-1, the relative viability in test [1] (first compound 0.08 µM) is 0.93; in test [1] (first compound 0.253 µM) it was 1.18; in test [1] (first compound 0.8 µM), 0.84; in test [1] (first compound 2.53 µM), 0.238; in test [1] (first compound 8 µM), 0.142; in test [2] (first compound 0.08 µM), 0.367. Moreover, the relative viability in test [2] (first compound 0.253 µM) stood at 0.299; in test [2] (first compound 0.8 µM), 0.376; in test [2] (first compound 2.53 µM), 0.119; in test [2] (first compound 8 µM), 0.0636; with Bortezomib + Foretinib (first compound 0.0002 µM) it was 0.742; with Bortezomib + Foretinib (first compound 0.000632 µM), 0.86. In addition, the results for the relative viability in the test with Bortezomib + Foretinib (first compound 0.002 µM), with Bortezomib + Foretinib (first compound 0.006325 µM) and in the test with Bortezomib + Foretinib (first compound 0.02 µM) were 0.67, 0.128 and 0.112, respectively.
In the case of SK-MES-1, the relative viability in test [1] (first compound 0.08 µM) stood at 1.06; in test [1] (first compound 0.253 µM), 1.04; in test [1] (first compound 0.8 µM), 0.939; in test [1] (first compound 2.53 µM) it was 0.796; in test [1] (first compound 8 µM), 0.146; in test [2] (first compound 0.08 µM), 0.604. In addition, the relative viability is 0.617 in test [2] (first compound 0.253 µM); 0.524 in test [2] (first compound 0.8 µM); 0.139 in test [2] (first compound 2.53 µM); 0.103 in test [2] (first compound 8 µM); 1.01 with Bortezomib + Foretinib (first compound 0.0002 µM); 0.946 in the test with Bortezomib + Foretinib (first compound 0.000632 µM). For the same cell line, the relative viability in the test with Bortezomib + Foretinib (first compound 0.002 µM) worked out at 0.967; with Bortezomib + Foretinib (first compound 0.006325 µM), 0.632; with Bortezomib + Foretinib (first compound 0.02 µM), 0.241.
Consider SW 1573, for which the relative viability was found to be 0.737 in test [1] (first compound 0.08 µM); 0.78 in test [1] (first compound 0.253 µM); 0.607 in test [1] (first compound 0.8 µM); 0.502 in test [1] (first compound 2.53 µM); 0.124 in test [1] (first compound 8 µM); 0.549 in test [2] (first compound 0.08 µM). Besides, the relative viability is 0.511 in test [2] (first compound 0.253 µM); 0.569 in test [2] (first compound 0.8 µM); 0.0922 in test [2] (first compound 2.53 µM); 0.0676 in test [2] (first compound 8 µM); 0.943 with Bortezomib + Foretinib (first compound 0.0002 µM); 0.907 with Bortezomib + Foretinib (first compound 0.000632 µM). For the same cell line, the relative viability in the test with Bortezomib + Foretinib (first compound 0.002 µM) is 1.02; with Bortezomib + Foretinib (first compound 0.006325 µM), 0.327; with Bortezomib + Foretinib (first compound 0.02 µM) it was 0.0926.
UMC-11: the relative viability in test [1] (first compound 0.08 µM) amounted to 0.937; in test [1] (first compound 0.253 µM), 1.03; in test [1] (first compound 0.8 µM) it was 0.934; in test [1] (first compound 2.53 µM), 0.508; in test [1] (first compound 8 µM) it was 0.133; in test [2] (first compound 0.08 µM), 0.494. For the same cell line, the relative viability in test [2] (first compound 0.253 µM) is 0.458; in test [2] (first compound 0.8 µM) it was 0.339; in test [2] (first compound 2.53 µM) it was 0.141; in test [2] (first compound 8 µM), 0.133; in the test with Bortezomib + Foretinib (first compound 0.0002 µM) it was 0.801; with Bortezomib + Foretinib (first compound 0.000632 µM) it was 0.97. Moreover, the figures for the relative viability with Bortezomib + Foretinib (first compound 0.002 µM), in the test with Bortezomib + Foretinib (first compound 0.006325 µM) and in the test with Bortezomib + Foretinib (first compound 0.02 µM) were 0.96, 0.449 and 0.175, respectively.
